Tests used:
[1] = test system: SNU1196/GR cells; experiment: MTT assay of anticancer agent susceptibility after inhibiting TAGLN2 expression; assay type: cell-based, human; settings: for change in susceptibility to anticancer agent when TAGLN2 expression was inhibited: TAGLN2 siRNA transfection
Description: As siRNA for TAGLN2, sc-106633 produced by Santa Cruz Biotechnology was used, and as control siRNA, sc-37007 (Santa Cruz Biotechnology) was used. An anticancer agent (gemcitabine)-resistant biliary tract cancer cell line SNU1196/GR was transfected with each of control siRNA and TAGLN2 siRNA using a lipofectamine RNAiMAX transfection reagent (Invitrogen), and after 24 hours, was cultured for 72 hours by treating with gemcitabine at various concentrations. The cell line reacted with an MTT solution (Sigma-Aldrich) for 3 hours, and then absorbance at 570 nm was measured by treating with DMSO to determine whether the anticancer agent resistance was overcome through inhibition of TAGLN2 expression in the anticancer agent-resistant biliary tract cancer cell line. The inhibition of the expression by TAGLN2 siRNA was confirmed by western blotting after 72 hours of the transfection.

[2] = test system: SNU1196/GR cells; experiment: MTT assay confirming resistance to anticancer agent (gemcitabine), resistant line; assay type: cell-based, human; settings: SNU1196/GR vs SNU1196/P, 72 hours
Description: To create an anticancer agent-resistant biliary tract cancer cell line, a SNU1196 cell line was treated with gemcitabine at various concentrations and then subjected to MTT assay to calculate an IC50 value, and the cells were treated with gemcitabine at a concentration of IC50 for 3 days. After 3 days, when the cells were recovered after being cultured in a drug-free growth medium [10% fetal bovine serum (FBS; Hyclone)-containing RPMI1640 (Invitrogen Gibco)], the cells were recovered by treating with gemcitabine at double the IC50 concentration for 3 days, and an anticancer agent-resistant cell line (named SNU1196/GR) was established by repeating such a cell culturing procedure for 1 year. Whether the resistance to the anticancer agent was acquired was confirmed by MTT assay. Cells derived from biliary tract cancer cell line SNU1196 and anticancer agent-resistant biliary tract cancer cell line SNU1196/GR were attached to 96-well plates at 3×10^3 cells/well, and the following day, the cells were cultured for 72 hours by treating with gemcitabine at various concentrations. […] After 3 hours, the MTT solution was removed, and then absorbance was measured at 570 nm by adding dimethyl sulfoxide (DMSO) at 100 μl/well.

[3] = test system: SNU1196/P cells; experiment: MTT assay with gemcitabine, parent cell line; assay type: cell-based; settings: Homo sapiens, 10 nM stated to be lower than the IC50, read-out: IC50 concentration of parent cell line
Description: To create an anticancer agent-resistant biliary tract cancer cell line, a SNU1196 cell line was treated with gemcitabine at various concentrations and then subjected to MTT assay to calculate an IC50 value, and the cells were treated with gemcitabine at a concentration of IC50 for 3 days. After 3 days, when the cells were recovered after being cultured in a drug-free growth medium [10% fetal bovine serum (FBS; Hyclone)-containing RPMI1640 (Invitrogen Gibco)], the cells were recovered by treating with gemcitabine at double the IC50 concentration for 3 days, and an anticancer agent-resistant cell line (named SNU1196/GR) was established by repeating such a cell culturing procedure for 1 year. Whether the resistance to the anticancer agent was acquired was confirmed by MTT assay.
Cells derived from biliary tract cancer cell line SNU1196 and anticancer agent-resistant biliary tract cancer cell line SNU1196/GR were attached to 96-well plates at 3×10^3 cells/well, and the following day, the cells were cultured for 72 hours by treating with gemcitabine at various concentrations. […] After 3 hours, the MTT solution was removed, and then absorbance was measured at 570 nm by adding dimethyl sulfoxide (DMSO) at 100 μl/well.

Row | SMILES | change in susceptibility to anticancer agent when TAGLN2 expression was inhibited [1] | further results
1 | Nc1ccn([C@@H]2O[C@H](CO)[C@@H](O)C2(F)F)c(=O)n1 [gemcitabine] |  | increase of anticancer agent susceptibility ([1]; co-treatment with TAGLN2 siRNA, gemcitabine 10 nM): 43%; IC50 value of SNU1196/GR cells for gemcitabine relative to parent cell line [2]: 100 times; IC50 [3]: > 0.01 µM
2 | N.N.[Cl][Pt][Cl] [cisplatin] | increased | 
3 | N.N.O=C([O-])C1(C(=O)[O-])CCC1.[Pt+2] [carboplatin] | increased | 
4 | O=c1[nH]cc(F)c(=O)[nH]1 [5-FU, 5-fluorourasil] | increased | 
5 | C#Cc1cccc(Nc2ncnc3cc(OCCOC)c(OCCOC)cc23)c1 [erlotinib] | did not cause changes | 
6 | O=C1[O][Pt]2([NH][C@@H]3CCCC[C@H]3[NH]2)[O]C1=O [oxaliplatin] | increased | 
7 | COc1cc([C@@H]2c3cc4c(cc3[C@@H](O[C@@H]3O[C@@H]5CO[C@@H](C)O[C@H]5[C@H](O)[C@H]3O)[C@H]3COC(=O)[C@H]23)OCO4)cc(OC)c1O [etoposide] | did not cause changes | 
8 | CCc1c2c(nc3ccc(OC(=O)N4CCC(N5CCCCC5)CC4)cc13)-c1cc3c(c(=O)n1C2)COC(=O)[C@]3(O)CC [irinotecan] | did not cause changes | 
